Source: patent EP2057188B1 (priority 2006, dated 2008)
Where two headings read alike, the source gives them in different places. Ends that are not written are not given here.

Experiments:
[1] = cited from earlier work; for inhibition of gastric emptying: at doses of 100µg; for EC(50): inhibition of gastric emptying, subcutaneous
[2] = type: in vivo, rats; design: AUC Change in Insulin Pre IVGTT / AUC Change in Insulin Post IVGTT: unit not given beside the values; settings: rat, in vivo
[3] = type: in vivo, NIH/Swiss mice; settings: 80 nmol/Kg; AUC240
Experimental: Gavage (1.5g/kg) was given at t=0. Sample was taken at t=30 min.

Compound	inhibition of gastric emptying [1]	EC(50) ([1]; conscious rats ~200g) [µg]	EC(50) ([1]; conscious rats) [nmol/kg]	Basal Glucose Lowering at 80 nmol/Kg [3]	further results
glucagon: peptide compared for inhibition of gastric emptying in conscious rats	weakly active or inactive	–	–	–	–
Rat CGRP: peptide compared for inhibition of gastric emptying in conscious rats (SCNTATCVTHRLAGLLSRSGGVVKDNFVPTNVGSEAF; ends and bridges not checked; cysteine pairing not given here; UniProt P01256 83-119, looked up)	–	1.62	2.13	–	–
PACAP38: pituitary adenylate cyclase activating peptide (HSDGIFTDSYSRYRKQMAVKKYLAAVLGKRYKQRVKNK-NH2; ends and bridges not checked; UniProt P18509 132-169, looked up)	weakly active or inactive	–	–	–	–
adrenomedullin: peptide compared for inhibition of gastric emptying in conscious rats (YRQSMNNFQGLRSFGCRFGTCTVQKLAHQIYQFTDKDKDNVAPRSKISPQGY; ends and bridges not checked; cysteine pairing not given here; UniProt P35318 95-146, looked up)	weakly active or inactive	–	–	–	–
KCNTATCATQRLANFLVHSSNNFGAILSSTNVGSNTY [Human amylin]	–	0.15	0.19	–	–
^25,28,29Pro-h-amylin (KCNTATCATQRLANFLVHSSNNFGPILPPTNVGSNTY; chains of the INN, looked up) [Pramlintide]	–	0.07	–	–	–
pancreatic polypeptide: peptide compared for inhibition of gastric emptying in conscious rats (APLEPVYPGDNATPEQMAQYAADLRRYINMLTRPRY; ends and bridges not checked; UniProt P01298 30-65, looked up)	weakly active or inactive	–	–	–	–
[dAla2, Leu14, beta-Ala31, beta-Ala32] GIP-(1-32)-Exendin-4 (31-39) [Compound 0601GIP4179]	–	–	–	-17%, AUC240	AUC Change in Insulin Post IVGTT [2]: 206.8+-30.1; AUC Change in Insulin Pre IVGTT [2]: 52.4+-9.6
Gastrin releasing peptide: peptide compared for inhibition of gastric emptying in conscious rats (VPLPAGGGTVLTKMYPRGNHWAVGHLM; ends and bridges not checked; UniProt P07492 24-50, looked up)	–	28.5	49.9	–	–
CC[C@H](C)[C@H](NC(=O)[C@H](CO)NC(=O)[C@H](Cc1ccc(O)cc1)NC(=O)[C@H](CC(=O)O)NC(=O)[C@H](CO)NC(=O)[C@@H](NC(=O)[C@H](Cc1ccccc1)NC(=O)[C@@H](NC(=O)CNC(=O)[C@H](CCC(=O)O)NC(=O)[C@@H](C)NC(=O)[C@@H](N)Cc1ccc(O)cc1)[C@@H](C)O)[C@@H](C)CC)C(=O)N[C@@H](C)C(=O)N[C@@H](CCSC)C(=O)N[C@@H](CC(=O)O)C(=O)N[C@@H](CCCCN)C(=O)N[C@H](C(=O)N[C@@H](Cc1c[nH]cn1)C(=O)N[C@@H](CCC(N)=O)C(=O)N[C@@H](CCC(N)=O)C(=O)N[C@@H](CC(=O)O)C(=O)N[C@@H](Cc1ccccc1)C(=O)N[C@H](C(=O)N[C@@H](CC(N)=O)C(=O)N[C@@H](Cc1c[nH]c2ccccc12)C(=O)N[C@@H](CC(C)C)C(=O)N[C@@H](CC(C)C)C(=O)N[C@@H](C)C(=O)N[C@@H](CCC(N)=O)C(=O)N[C@@H](CCCCN)C(=O)N1CCC[C@H]1C(=O)N[C@@H](CO)C(=O)N[C@@H](CCCCN)C(=O)N[C@@H](CCC(=O)O)C(=O)N[C@H](C(=O)N[C@H](C(=O)N[C@@H](CO)C(N)=O)[C@@H](C)CC)[C@@H](C)CC)C(C)C)[C@@H](C)CC [Compound 0601GIP4234]	–	–	–	-11%, AUC240	–
vasoactive intestinal peptide: peptide compared for inhibition of gastric emptying in conscious rats (HSDAVFTDNYTRLRKQMAVKKYLNSILN; ends and bridges not checked; UniProt P01282 125-152, looked up)	weakly active or inactive	–	–	–	–
CC[C@H](C)[C@H](NC(=O)[C@H](CO)NC(=O)[C@H](Cc1ccc(O)cc1)NC(=O)[C@H](CC(=O)O)NC(=O)[C@H](CO)NC(=O)[C@@H](NC(=O)[C@H](Cc1ccccc1)NC(=O)[C@@H](NC(=O)CNC(=O)[C@H](CCC(=O)O)NC(=O)[C@@H](C)NC(=O)[C@@H](N)Cc1ccc(O)cc1)[C@@H](C)O)[C@@H](C)CC)C(=O)N[C@@H](C)C(=O)N[C@@H](CCSC)C(=O)N[C@@H](CC(=O)O)C(=O)N[C@@H](CCCCN)C(=O)N[C@H](C(=O)N[C@@H](Cc1c[nH]cn1)C(=O)N[C@@H](CCC(N)=O)C(=O)N[C@@H](CCC(N)=O)C(=O)N[C@@H](CC(=O)O)C(=O)N[C@@H](Cc1ccccc1)C(=O)N[C@H](C(=O)N[C@@H](CC(N)=O)C(=O)N[C@@H](Cc1c[nH]c2ccccc12)C(=O)N[C@@H](CC(C)C)C(=O)N[C@@H](CC(C)C)C(=O)N[C@@H](C)C(=O)N[C@@H](CCC(N)=O)C(=O)N[C@@H](CCCCN)C(=O)N1CCC[C@H]1C(=O)N[C@@H](CCCCN)C(=O)NCC(=O)N[C@@H](CCCCN)C(=O)NCC(=O)N[C@@H](CCCCN)C(=O)N[C@@H](CO)C(N)=O)C(C)C)[C@@H](C)CC [0601GIP4700]	–	–	–	-6%, AUC240	–
[dAla2]GIP-(1-30)-[Octylglycine 34] Exendin-4 (31-39) [Compound 0601GIP4252]	–	–	–	-7%, AUC240	AUC Change in Insulin Post IVGTT [2]: 1218.1+ -12.7; AUC Change in Insulin Pre IVGTT [2]: 11.9+-11.7
CSNLSTCVLGKLSQELHKLQTYPRTNTGSGTP [Salmon calcitonin]	–	0.19	0.28	–	–
CC[C@H](C)[C@H](NC(=O)[C@H](CO)NC(=O)[C@H](Cc1ccc(O)cc1)NC(=O)[C@H](CC(=O)O)NC(=O)[C@H](CO)NC(=O)[C@@H](NC(=O)[C@H](Cc1ccccc1)NC(=O)[C@@H](NC(=O)CNC(=O)[C@H](CCC(=O)O)NC(=O)[C@@H](C)NC(=O)[C@@H](N)Cc1ccc(O)cc1)[C@@H](C)O)[C@@H](C)CC)C(=O)N[C@@H](C)C(=O)N[C@@H](CC(C)C)C(=O)N[C@@H](CC(=O)O)C(=O)N[C@@H](CCCCN)C(=O)N[C@H](C(=O)N[C@@H](CCCNC(=N)N)C(=O)N[C@@H](CCC(N)=O)C(=O)N[C@@H](CCC(N)=O)C(=O)N[C@@H](CCC(=O)O)C(=O)N[C@@H](Cc1ccccc1)C(=O)N[C@H](C(=O)N[C@@H](CC(N)=O)C(=O)N[C@@H](Cc1c[nH]c2ccccc12)C(=O)N[C@@H](CC(C)C)C(=O)N[C@@H](CC(C)C)C(=O)N[C@@H](C)C(=O)N[C@@H](CCC(N)=O)C(=O)N[C@@H](CCCCN)C(=O)N1CCC[C@H]1C(=O)N[C@@H](CCCCN)C(=O)N[C@@H](CCCCN)C(=O)N[C@H](C(=O)N[C@@H](CCCNC(=N)N)C(=O)N[C@@H](Cc1ccc(O)cc1)C(=O)N[C@@H](CO)C(N)=O)[C@@H](C)CC)C(C)C)[C@@H](C)CC [0601GIP4539]	–	–	–	-5%, AUC240	–
neuropeptide Y: peptide compared for inhibition of gastric emptying in conscious rats	weakly active or inactive	–	–	–	–
Rat calcitonin: peptide compared for inhibition of gastric emptying in conscious rats (CGNLSTCMLGTYTQDLNKFHTFPQTSIGVGAP; ends and bridges not checked; cysteine pairing not given here; UniProt P01257 85-116, looked up)	–	0.64	0.94	–	–
Secretin: peptide compared for inhibition of gastric emptying in conscious rats	–	1.87	3.09	–	–
CC[C@H](C)[C@H](NC(=O)[C@H](CO)NC(=O)[C@H](Cc1ccc(O)cc1)NC(=O)[C@H](CC(=O)O)NC(=O)[C@H](CO)NC(=O)[C@@H](NC(=O)[C@H](Cc1ccccc1)NC(=O)[C@@H](NC(=O)CNC(=O)[C@H](CCC(=O)O)NC(=O)[C@@H](C)NC(=O)[C@@H](N)Cc1ccc(O)cc1)[C@@H](C)O)[C@@H](C)CC)C(=O)N[C@@H](C)C(=O)N[C@@H](CCSC)C(=O)N[C@@H](CC(=O)O)C(=O)N[C@@H](CCCCN)C(=O)N[C@H](C(=O)N[C@@H](Cc1c[nH]cn1)C(=O)N[C@@H](CCC(N)=O)C(=O)N[C@@H](CCC(N)=O)C(=O)N[C@@H](CC(=O)O)C(=O)N[C@@H](Cc1ccccc1)C(=O)N[C@H](C(=O)N[C@@H](CC(N)=O)C(=O)N[C@@H](Cc1c[nH]c2ccccc12)C(=O)N[C@@H](CC(C)C)C(=O)N[C@@H](CC(C)C)C(=O)N[C@@H](C)C(=O)N[C@@H](CCC(N)=O)C(=O)N[C@@H](CCCCN)C(=O)NCCC(=O)NCCC(=O)N1CCC[C@H]1C(=O)N[C@@H](CCCCN)C(=O)N[C@@H](CCCCN)C(=O)N[C@H](C(=O)N[C@@H](CCCNC(=N)N)C(=O)N[C@@H](Cc1ccc(O)cc1)C(=O)N[C@@H](CO)C(N)=O)[C@@H](C)CC)C(C)C)[C@@H](C)CC [0601GIP4648]	–	–	–	-8%, AUC240	–
somatostatin: peptide compared for inhibition of gastric emptying in conscious rats (AGCKNFFWKTFTSC; ends and bridges not checked; cysteine pairing not given here; UniProt P61278 103-116, looked up)	weakly active or inactive	–	–	–	–
